Values of other authors, collected in US5231002A, “Synthetic SCM-active cancer recognition peptides” (priority 1990, dated 1993).

Key:
[1] = test system: lymphocytes from multiple sclerosis; conditions: lymphocytes from multiple sclerosis patients
[2] = test system: potentially SCM-responding lymphocytes from donors with malignant diseases

CaBP
response in the SCM test (in words) [1]: do not respond | effectiveness as cancer-associated antigen in the SCM test ([2]; known cancer-associated antigens): effective in the SCM test | time until response of lymphocytes is lost after surgical removal of malignancy ([2]; malignancies of breast or colon surgically removed): ≤ 24 h
